Laboratory results taken from patent US8952024B2, “Herbicidal pyrimidone derivatives” (E I du Pont de Nemours and Company, priority 2009, dated 2015).

Columns and labels:
Assay type in all cases: in vivo
[1] = tested on: morningglory (Ipomoea spp.); assay: Test A pre-/postemergence plant response
How it was run: (§1)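 Injury scores (0, no effect; 100, complete control) come from visual comparison with untreated controls roughly ten days post-treatment. Test chemicals in a surfactant-containing non-phytotoxic solvent were applied as a directed soil spray preemergence and to one- to two-leaf seedlings postemergence.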

[2] = tested on: large crabgrass (Digitaria sanguinalis); assay: Test A pre-/postemergence plant response
How it was run: as §1

[3] = tested on: velvetleaf (Abutilon theophrasti); assay: Test A pre-/postemergence plant response
How it was run: as §1

[4] = tested on: barnyardgrass (Echinochloa crus-galli); assay: Test A pre-/postemergence plant response
How it was run: as §1

[5] = tested on: pigweed (Amaranthus retroflexus); assay: Test A pre-/postemergence plant response
How it was run: as §1

[6] = tested on: giant foxtail (Setaria faberii); assay: Test A pre-/postemergence plant response
How it was run: as §1

[7] = tested on: corn (Zea mays); assay: Test A pre-/postemergence plant response
How it was run: as §1

[8] = tested on: wheat (Triticum aestivum); assay: Test A pre-/postemergence plant response
How it was run: as §1

[9] = tested on: windgrass (Apera spica-venti); assay: Test B postemergence plant response; details: Postemergence
Excerpt: (§2) At the same time, plants selected from these crop and weed species and also winter barley (Hordeum vulgare), canarygrass (Phalaris minor), chickweed (Stellaria media) and windgrass (Apera spica-venti) were planted in pots containing Redi-Earth® planting medium (Scotts Company, 14111 Scottslawn Road, Marysville, Ohio 43041) comprising spaghnum peat moss, vermiculite, wetting agent and starter nutrients and treated with postemergence applications of some of the test chemicals formulated in the same manner. Plants ranged in height from 2 to 18 cm (1- to 4-leaf stage) for postemergence treatments.
(§3) Treated plants and controls were maintained in a greenhouse for 13 to 15 days, after which time all treated plants were visually evaluated and compared to controls. Plant response ratings, summarized in Table B, are based on a scale of 0 to 100 where 0 is no effect and 100 is complete control. A dash (-) response means no test result.

[10] = tested on: winter barley (Hordeum vulgare); assay: Test B postemergence plant response; details: Postemergence; for Barley plant response rating: 250 g ai/ha, scale 0 to 100
Excerpt: as §2, §3

[11] = tested on: canarygrass (Phalaris minor); assay: Test B postemergence plant response; details: Postemergence; for Canarygrass plant response rating: 250 g ai/ha, scale 0 to 100
Excerpt: as §2, §3

[12] = tested on: chickweed (Stellaria media); assay: Test B postemergence plant response; details: Postemergence; for Chickweed plant response rating: 250 g ai/ha, scale 0 to 100
Excerpt: as §2, §3

[13] = Postemergence, 125 g ai/ha, visual injury, 0 to 100 scale (0 no effect, 100 complete control), approx. ten days
[14] = Postemergence, 500 g ai/ha, 0 to 100 scale, 0 = no effect, 100 = complete control, approx. ten days
[15] = Preemergence, 125 g ai/ha, 0 to 100 scale, 0 = no effect, 100 = complete control
[16] = Preemergence, 500 g ai/ha, visual injury, 0 to 100 scale (0 no effect, 100 complete control), approx. ten days
[17] = 31 g ai/ha, scale 0 to 100 (0 no effect, 100 complete control)
[18] = 62 g ai/ha, scale 0 (no effect) to 100 (complete control), 13 to 15 days
[19] = 125 g ai/ha, visual rating after 13 to 15 days, scale 0 (no effect) to 100 (complete control)

O=C1CCCC(O)=C1C(=O)c1cnc(-c2ccccc2)n(-c2ccccc2F)c1=O [Compound 26]
Morningglory plant response rating [1, 13]: 50
Plant response rating, Morningglory [1, 14]: 80
Plant response rating, Morningglory [1, 15]: 10
Plant response rating, Morningglory [1, 16]: 70
Crabgrass, Large plant response rating [2, 13]: 70
Plant response rating, Crabgrass, Large [2, 14]: 90
Plant response rating, Crabgrass, Large [2, 15]: 20
Plant response rating, Crabgrass, Large [2, 16]: 90
Velvetleaf plant response rating [3, 13]: 100
Plant response rating, Velvetleaf [3, 14]: 100
Plant response rating, Velvetleaf [3, 15]: 20
Plant response rating, Velvetleaf [3, 16]: 100
Barnyardgrass plant response rating [4, 13]: 30
Plant response rating, Barnyardgrass [4, 14]: 80
Plant response rating, Barnyardgrass [4, 15]: 0
Plant response rating, Barnyardgrass [4, 16]: 60
Pigweed plant response rating [5, 13]: 90
Plant response rating, Pigweed [5, 14]: 100
Plant response rating, Pigweed [5, 15]: 60
Plant response rating, Pigweed [5, 16]: 100
Foxtail, Giant plant response rating [6, 13]: 50
Plant response rating, Foxtail, Giant [6, 14]: 90
Plant response rating, Foxtail, Giant [6, 15]: 30
Plant response rating, Foxtail, Giant [6, 16]: 70
Corn plant response rating [7, 13]: 0
Plant response rating, Corn [7, 14]: 20
Plant response rating, Corn [7, 15]: 0
Plant response rating, Corn [7, 16]: 0
Wheat plant response rating [8, 13]: 0
Plant response rating, Wheat [8, 14]: 0
Plant response rating, Wheat [8, 15]: 0
Plant response rating, Wheat [8, 16]: 0
Plant response rating, Windgrass [9, 17]: 10
Plant response rating, Windgrass [9, 18]: 30
Plant response rating, Windgrass [9, 19]: 40
Windgrass plant response rating ([9]; 250 g ai/ha, scale 0 to 100): 60
Plant response rating, Barley [10, 17]: 0
Plant response rating, Barley [10, 18]: 0
Plant response rating, Barley ([10]; 125 g ai/ha, scale 0 to 100 (0 no effect, 100 complete control), 13 to 15 days): 0
Barley plant response rating [10]: 0
Plant response rating, Canarygrass [11, 17]: 20
Plant response rating, Canarygrass [11, 18]: 30
Plant response rating, Canarygrass [11, 19]: 50
Canarygrass plant response rating [11]: 60
Plant response rating, Chickweed [12, 17]: 40
Plant response rating, Chickweed [12, 18]: 50
Plant response rating, Chickweed [12, 19]: 85
Chickweed plant response rating [12]: 85

Cc1cc(C)cc(-n2c(-c3ccccc3)ncc(C(=O)C3=C(O)CCCC3=O)c2=O)c1 [Compound 33]
Morningglory plant response rating [1, 13]: 80
Plant response rating, Morningglory [1, 14]: 90
Plant response rating, Morningglory [1, 15]: 0
Plant response rating, Morningglory [1, 16]: 50
Crabgrass, Large plant response rating [2, 13]: 70
Plant response rating, Crabgrass, Large [2, 14]: 100
Plant response rating, Crabgrass, Large [2, 15]: 80
Plant response rating, Crabgrass, Large [2, 16]: 100
Velvetleaf plant response rating [3, 13]: 100
Plant response rating, Velvetleaf [3, 14]: 100
Plant response rating, Velvetleaf [3, 15]: 50
Plant response rating, Velvetleaf [3, 16]: 80
Barnyardgrass plant response rating [4, 13]: 80
Plant response rating, Barnyardgrass [4, 14]: 100
Plant response rating, Barnyardgrass [4, 15]: 10
Plant response rating, Barnyardgrass [4, 16]: 90
Pigweed plant response rating [5, 13]: 90
Plant response rating, Pigweed [5, 14]: 100
Plant response rating, Pigweed [5, 15]: 80
Plant response rating, Pigweed [5, 16]: 90
Foxtail, Giant plant response rating [6, 13]: 60
Plant response rating, Foxtail, Giant [6, 14]: 100
Plant response rating, Foxtail, Giant [6, 15]: 30
Plant response rating, Foxtail, Giant [6, 16]: 90
Corn plant response rating [7, 13]: 0
Plant response rating, Corn [7, 14]: 20
Plant response rating, Corn [7, 15]: 0
Plant response rating, Corn [7, 16]: 30
Wheat plant response rating [8, 13]: 0
Plant response rating, Wheat [8, 14]: 20
Plant response rating, Wheat [8, 15]: 0
Plant response rating, Wheat [8, 16]: 10
Plant response rating, Windgrass [9, 18]: 25
Plant response rating, Windgrass [9, 19]: 30
Plant response rating, Barley [10, 17]: 0
Plant response rating, Barley [10, 18]: 0
Plant response rating, Barley [10, 19]: 0
Barley plant response rating [10]: 0
Plant response rating, Canarygrass [11, 17]: 0
Plant response rating, Canarygrass [11, 18]: 0
Plant response rating, Canarygrass [11, 19]: 5
Canarygrass plant response rating [11]: 5
Plant response rating, Chickweed [12, 17]: 80
Plant response rating, Chickweed [12, 18]: 98
Plant response rating, Chickweed [12, 19]: 100
Chickweed plant response rating [12]: 100
